Assay results reported in PMC4309560, “Creating Novel Activated Factor XI Inhibitors through Fragment Based Lead Generation and Structure Aided Drug Design” (PLoS ONE, 2015).
pIC50, pKd, pKi: −log10 of the molar value.

How the values were obtained:
Human FXIa = biological target: T1, Human FXIa (Homo sapiens, UniProt P03951); experiment: FXIa enzymatic chromogenic assay; assay type: biochemical
T1 construct: purchased HTI, Essex Junction, USA
Experimental: (§1) Enzymatic assay. […] Selected compounds were also screened against other serine proteases to evaluate their selectivity profiles.
(§2) Once the compounds were synthesized and characterized, enzymatic assays were performed to evaluate the inhibitory activity of the resulting compounds against FXIa and other serine proteases. […] IC50 values for the compounds were determined using equation: Q= V/(1+([I]/IC50)^n) Q denotes the assay readout, V denotes the uninhibited velocity of the enzyme, [I] denotes the inhibitor concentration, n denotes the slope and IC50 is the inhibitor concentration at V/2.
(§3) [S] denotes the substrate concentration.

Human FIXa = Human FIXa (Homo sapiens, UniProt P00740); experiment: biochemical; conditions: read-out: FIXa % inhibition at 99 μM
Chain of Human FIXa (P00740 227-461 limits assumed): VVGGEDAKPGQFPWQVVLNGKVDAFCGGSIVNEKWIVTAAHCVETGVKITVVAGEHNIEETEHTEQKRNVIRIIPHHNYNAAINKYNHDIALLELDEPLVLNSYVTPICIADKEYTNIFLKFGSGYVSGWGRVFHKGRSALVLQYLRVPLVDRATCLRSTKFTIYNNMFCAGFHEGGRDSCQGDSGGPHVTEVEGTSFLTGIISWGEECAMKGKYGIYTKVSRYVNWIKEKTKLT
Chain of Human FIXa (P00740 47-191 partner limits assumed): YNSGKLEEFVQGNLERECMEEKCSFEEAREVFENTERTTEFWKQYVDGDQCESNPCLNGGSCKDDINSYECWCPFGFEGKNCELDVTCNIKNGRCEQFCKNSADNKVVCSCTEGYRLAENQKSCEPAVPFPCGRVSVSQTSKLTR
Experimental: as §1, §2

Human FXa = Human FXa (Homo sapiens, UniProt P00742); experiment: biochemical; conditions: read-out: FXa % inhibition at 99 μM
Chain of Human FXa (P00742 235-488 limits assumed): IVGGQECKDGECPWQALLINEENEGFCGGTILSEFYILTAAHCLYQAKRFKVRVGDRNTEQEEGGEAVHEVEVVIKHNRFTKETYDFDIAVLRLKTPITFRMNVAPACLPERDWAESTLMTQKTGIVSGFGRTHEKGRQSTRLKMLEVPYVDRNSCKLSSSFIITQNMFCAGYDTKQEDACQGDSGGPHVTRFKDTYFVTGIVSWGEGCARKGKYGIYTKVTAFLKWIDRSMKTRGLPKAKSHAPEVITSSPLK
Chain of Human FXa (P00742 41-179 partner limits assumed): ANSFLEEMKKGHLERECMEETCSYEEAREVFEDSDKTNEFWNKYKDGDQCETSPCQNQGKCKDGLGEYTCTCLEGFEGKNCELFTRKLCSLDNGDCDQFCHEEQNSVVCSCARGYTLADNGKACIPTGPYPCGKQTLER
Experimental: as §1, §2

Human PKK = biological target: T2, Human PKK (Homo sapiens, UniProt P03952); experiment: PKK (plasma kallikrein) chromogenic assay; assay type: biochemical
T2 construct: trypsin, plasma kallikrein (PKK), FIXa; purchased Calbiochem, Darmstadt, Germany
T2 sequence (P03952 391-638 limits assumed): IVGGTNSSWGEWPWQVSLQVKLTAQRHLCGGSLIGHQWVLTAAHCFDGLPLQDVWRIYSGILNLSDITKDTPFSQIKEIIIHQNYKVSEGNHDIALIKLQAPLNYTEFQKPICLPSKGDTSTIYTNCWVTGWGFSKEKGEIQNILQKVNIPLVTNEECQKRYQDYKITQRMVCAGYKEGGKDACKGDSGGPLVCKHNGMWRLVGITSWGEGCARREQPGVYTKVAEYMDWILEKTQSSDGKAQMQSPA
T2 sequence (P03952 20-390 partner limits assumed): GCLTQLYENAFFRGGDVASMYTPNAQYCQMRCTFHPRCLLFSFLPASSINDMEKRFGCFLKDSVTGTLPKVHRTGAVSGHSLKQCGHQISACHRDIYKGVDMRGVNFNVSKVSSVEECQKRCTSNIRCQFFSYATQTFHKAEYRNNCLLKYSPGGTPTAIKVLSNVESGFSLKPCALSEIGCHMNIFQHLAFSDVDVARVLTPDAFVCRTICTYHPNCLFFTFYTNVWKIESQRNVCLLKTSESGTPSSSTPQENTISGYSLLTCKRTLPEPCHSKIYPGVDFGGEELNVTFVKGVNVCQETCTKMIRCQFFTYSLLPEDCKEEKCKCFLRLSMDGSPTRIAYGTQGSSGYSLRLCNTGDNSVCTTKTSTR
Experimental: as §1, §2, §3
PKK. Human PKK was from Calbiochem, Darmstadt, Germany.

FXIa CD = biological target: T3, FXIa CD (Homo sapiens, UniProt P03951, C500S/K455A/S452A/T493A); experiment: FXIa surface plasmon resonance (Biacore) inhibition in solution assay; assay type: binding
T3 construct: purification of the catalytic domain (residues 370–607) was carried out as described by Jin et al; made in house
T3 sequence (P03951 388-625 S452A/K455A/T493A/C500S): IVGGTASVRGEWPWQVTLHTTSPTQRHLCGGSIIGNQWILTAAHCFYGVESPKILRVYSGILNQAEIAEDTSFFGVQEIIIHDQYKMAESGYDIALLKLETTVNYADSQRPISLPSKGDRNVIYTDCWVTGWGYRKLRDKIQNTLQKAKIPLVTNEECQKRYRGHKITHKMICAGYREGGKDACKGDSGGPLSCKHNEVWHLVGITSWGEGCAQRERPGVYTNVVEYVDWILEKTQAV
Text: SPR. […] The SPR data were then used to rank and select compounds for X-ray crystallography experiments. The SPR method was based on an inhibition in solution assay in which compound 4, immobilized on the biosensor surface, served as a probe for the FXIa catalytic site. […] Fig. 4 illustrates the design of compound 4 based on the crystal structure of FXIa in complex with compound 1. Since any ligand that binds to the S1 pocket competes with compound 4 for binding to FXIa CD, it is possible to derive the K D for that ligand [60]. The initial binding rate of the protein to compound 4, K on, was used to determine the percentage of free protein in solution which changed by varying the concentration of the competing ligand. The free protein concentration was plotted against the logarithm of the ligand concentration and a sigmoidal dose–response curve-fit model was applied to determine the K D-value.
The tethered free amine ligand 4 was covalently linked to the dextran layer on the CM5 sensor chip (GE Healthcare/Biacore) using the Amine Coupling Kit (Healthcare/Biacore) and performed according to the manufacturer’s recommendations. Carboxyl groups on the dextran layer were activated by injecting a 1:1 mixture of 0.5 M N-ethyl-N’ (3-dimethylaminopropyl)-carbodiimide and 0.5 M N-hydroxysuccinimide at 10 μL/min for 7 min. The activated carboxyl groups on the control channels were blocked by injecting a 1 M ethanolamine solution for 7 min at 10 μL/min. […] The remaining activated groups were blocked with 1 M ethanolamine. Compounds were tested in a concentration response curve. The compounds were serially diluted 1:3 in DMSO to form a 10-point concentration response curve with 5 mM for the highest concentration. The FXIa CD was added to the plate at a final concentration of 50 nM and the mixture was incubated for 15 min at RT. The plate was then sealed and placed in the Biacore 3000 instrument. Samples were injected at 20 μL/min for 2 min. […] The value used to calculate percent inhibition of binding was the slope of the response measured 8 s after the start of the injection. […]

[1] = test system: FXa, thrombin, trypsin, plasma kallikrein (PKK), FIXa, tissue plasminogen activator (tPA) and plasmin; experiment: Serine protease selectivity panel (statements on the whole panel); assay type: biochemical, human; conditions: relative to FXIa
Experimental: Enzymatic assay. […] Selected compounds were also screened against other serine proteases to evaluate their selectivity profiles. All protease activities were determined by chromogenic assays monitoring the release of para-nitroanilide at 405 nm.
It is important to achieve potent FXIa inhibitors with high selectivity vs. other serine proteases in order to minimize risk for adverse effects, particularly with regard to bleeding, which limits the utility of current antithrombotic drugs, e.g. dabigatran and rivaroxaban. Selectivity data for FXa, thrombin, trypsin, plasma kallikrein (PKK), FIXa, tissue plasminogen activator (tPA) and plasmin were therefore generated and are summarized in Fig. 6. […].
Once the compounds were synthesized and characterized, enzymatic assays were performed to evaluate the inhibitory activity of the resulting compounds against FXIa and other serine proteases. All protease activities were determined by chromogenic assays monitoring the release of para-nitroanilide at 405 nm. IC50 values for the compounds were determined using equation: Q= V/(1+([I]/IC50)^n) Q denotes the assay readout, V denotes the uninhibited velocity of the enzyme, [I] denotes the inhibitor concentration, n denotes the slope and IC50 is the inhibitor concentration at V/2.

Caco2 cells = experiment: Caco2 permeability; assay type: in vitro ADME; conditions: measured at pH 6.5
Experimental: A monolayer of Caco2 cells, cultured on semi-permeable polycarbonate surfaces, was used to study the permeability in the apical to basolateral direction. The process was atomized by a robotic Tecan EVO platform (Männerdorf, Switzerland) and 24-transwell plates from Costar (Cambridge, MA, USA). HBSS buffer pH 7.4 was dispensed to the basal side of the monolayer. […] Samples for quantitative analysis by LC/MS/MS were withdrawn before the addition of the test substrate and at 45 and 120 min post addition of the test substrate. During incubation the transwell plates were placed in a shaking incubator at 37°C between sampling. The peak areas were exported to Excel where Papp-values and recoveries were calculated. Twenty-two reference compounds with known human oral bioavailability were used to establish a correlation curve with Papp versus the fraction of the oral dose absorbed (fa).

In vivo rat PK = conditions: female, Sprague Dawley, plasma, intravenous; rat in vivo; read-out: Rat CL (in vivo clearance)
Experimental: Two days prior to dosing, female Sprague Dawley rats were prepared by cannulation of the left carotid artery for blood sampling and by cannulation of the right jugular vein for intravenous administration. The catheters were filled with heparin (100 IU/mL), exteriorized at the nape of the neck and sealed. The surgery was performed under isoflurane (Forene®, Abbott) anesthesia. After surgery the rats were housed individually and had free access to food and water. About 16 h prior to dosing the animals were deprived of food, and fasted until 4 h after dosing. The rats had free access to drinking water during the experiment. On the experiment day, the test item formulation was administered orally by gavage or intravenously in the jugular vein. At pre-defined time points, blood samples of about 0.150 mL were withdrawn from the carotid artery up to 24h after dosing. A total of 10 samples were withdrawn. The blood samples were collected in heparinized plastic tubes and centrifuged, within 30 min, for five min at 10 000 g and +4°C. The plasma was transferred to a 96 well plate and stored at -20°C until analysis by LC/MS/MS. The studies were approved by the Göteborg Animal Research Ethical Board.

T1 sequence (P03951 388-625): as the sequence (P03951 388-625 S452A/K455A/T493A/C500S) above, with A65S, A68K, A106T, S113C counted along it
T1 sequence (P03951 19-387): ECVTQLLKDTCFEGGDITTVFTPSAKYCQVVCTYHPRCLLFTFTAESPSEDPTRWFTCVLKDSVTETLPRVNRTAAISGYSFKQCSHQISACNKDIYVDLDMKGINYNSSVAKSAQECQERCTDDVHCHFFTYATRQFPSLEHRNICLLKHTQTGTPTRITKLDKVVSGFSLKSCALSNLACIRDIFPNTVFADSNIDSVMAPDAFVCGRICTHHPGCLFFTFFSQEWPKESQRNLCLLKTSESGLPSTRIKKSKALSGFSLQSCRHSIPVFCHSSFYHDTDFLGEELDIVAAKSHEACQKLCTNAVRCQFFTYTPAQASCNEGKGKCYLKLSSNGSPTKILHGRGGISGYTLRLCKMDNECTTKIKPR

With `O=C(N[C@@H](Cc1ccccc1)C(=O)NCc1cc(=O)[nH]c2ccc(Cl)cc12)c1ccc2[nH]c(=O)cc(O)c2c1` [Compound 13, (S)-N-(1-{(6-Chloro-2-oxo-1,2-dihydroquinolin-4-yl)methylamino}-1-oxo-3-phenylpropan-2-yl)-4-hydroxy-2-oxo-1,2-dihydroquinoline-6-carboxamide] as the compound, how does the pIC50 (Human FXIa) read?
The pIC50 was 9.00.

And the “ligand efficiency (LE)” value (Human FXIa; FXIa)?
Its value is 0.32.

And the “ΔG (binding free energy)” value (Human FXIa; FXIa, term of the ΔG link equation)?
Its value is -12.7 kcal/mol.

And the “ΔG link (linker contribution)” value (Human FXIa; compound 13 relative to fragments 5 and 15)?
The value was -3.13 kcal/mol.

And the pKi (Human FXIa; read-out: FXIa Ki)?
The pKi was 9.30.

And the inhibition at 99 µM (Human FIXa)?
The inhibition at 99 µM was 2%.

And the inhibition at 99 µM (Human FXa)?
Its inhibition at 99 µM is 18%.

What about the pIC50 (Human PKK) of the same compound?
Its pIC50 is 7.57.

What about the “selectivity vs. PKK” value (Human PKK; FXIa over PKK, for 13 based on Ki values) of the same compound?
Its value is 11 fold.

And the pKi (Human PKK; converted from IC50)?
The pKi was 8.25.

What about the pKd (FXIa CD) of the same compound?
Its pKd is 9.30.

What about the “selectivity vs. all proteases in the panel, except PKK” value [1] of the same compound?
Its value is “more than five orders of magnitude selectivity”.

And the “Caco2 A to B permeability” value (Caco2 cells)?
The value was < 0.28 1·10^-6 cm/s.

What about the clearance (In vivo rat PK) of the same compound?
Its clearance is 130 mL/min/kg.
